Results published in PMC5159239 (Cell host & microbe, 2016).

B1: RIG-I-QQ (natural protein)
chain: MTTEQRRSLQAFQDYIRKTLDPTYILSYMAPWFREEEVQYIQAEKNNKGPMEAATLFLKFLLELQEEGWFRGFLDALDHAGYSGLYEAIESWDFKKIEKLEEYRLLLKRLQPEFKTRIIPTDIISDLSECLINQECEEILQICSTKGMMAGAEKLVECLLRSDKENWPKTLKLALEKERNKFSELWIVEKGIKDVETEDLEDKMETSDIQIFYQEDPECQNLSENSCPPSEVSDTNLYSPFKPRNYQLELALPAMKGKNTIICAPTGCGKTFVSLLICEHHLKKFPQGQKGKVVFFANQIPVYEQQKSVFSKYFERHGYRVTGISGATAENVPVEQIVENNDIIILTPQILVNNLKKGTIPSLSIFTLMIFDECHNTSKQHPYNMIMFNYLDQKLGGSSGPLPQVIGLTASVGVGDAKNTDEALDYICKLCASLDASVIATVKHNLEELEQVVYKPQKFFRKVESRISDKFKYIIAQLMRDTESLAKRICKDLEQLSQIQNREFGTQKYEQWIVTVQKACMVFQMPDKDEESRICKALFLYTSHLRKYQDALIISEHARMKDALDYLKDFFSNVRAAGFDEIEQDLTQRFEEKLQELESVSRDPSNENPKLEDLCFILQEEYHLNPETITILFVKTRALVDALKNWIEGNPKLSFLKPGILTGRGKTNQNTGMTLPAQKCILDAFKASGDHNILIATSVADEGIDIAQCNLVILYEYVGNVIKMIQTRGRGRARGSKCFLLTSNAGVIEKEQINMYKEKMMNDSILRLQTWDEAVFREKILHIQTHEKFIRDSQEKPKPVPDKENKKLLCRKCKALACYTADVRVIEECHYTVLGDAFKECFVSRPHPKPKQFSSFEKRAKIFCARQNCSHDWGIHVKYKTFEIPVIKIESFVVEDIATGVQTLYSKWKDFHFEKIPFDPAEMSK

What was measured:
[1] = target: UL37C (571-1123) (Human alphaherpesvirus 1 strain 17, UniProt P10221); test: tandem mass spectrometry of cysteine labelling; type: binding; conditions: covalent at C819; 45 min; also tested at 1 µM
[2] = target: the molecule itself; test: SEC

Sequence of UL37C (571-1123) (P10221 571-1123): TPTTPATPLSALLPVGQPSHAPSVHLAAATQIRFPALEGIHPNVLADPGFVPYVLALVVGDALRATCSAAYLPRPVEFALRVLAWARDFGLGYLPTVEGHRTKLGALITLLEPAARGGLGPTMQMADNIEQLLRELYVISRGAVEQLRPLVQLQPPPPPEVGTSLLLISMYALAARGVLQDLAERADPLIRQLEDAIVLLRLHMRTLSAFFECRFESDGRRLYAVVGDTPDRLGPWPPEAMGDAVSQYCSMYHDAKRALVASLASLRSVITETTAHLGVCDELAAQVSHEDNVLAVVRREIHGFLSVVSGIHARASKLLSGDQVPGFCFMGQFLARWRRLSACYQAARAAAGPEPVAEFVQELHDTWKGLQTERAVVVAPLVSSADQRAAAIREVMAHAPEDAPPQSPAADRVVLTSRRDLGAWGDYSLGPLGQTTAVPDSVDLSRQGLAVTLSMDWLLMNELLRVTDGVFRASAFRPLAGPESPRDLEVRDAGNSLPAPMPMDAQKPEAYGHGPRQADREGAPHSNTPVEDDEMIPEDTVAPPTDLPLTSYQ

| Molecule | % C819 labelled at 10 μM [1] [%] | binding result [2] |
| --- | --- | --- |
| O=C(CCl)NCO [2-Chloro-N-(hydroxymethyl)acetamide] | 42.5 |  |
| B1 |  | binds |
